Laboratory results taken from patent publication US11612553B2, “Oral care product and methods of use and manufacture thereof” (Colgate-Palmolive Company, priority 2008, dated 2023).

Test system: S. sanguis
Experiment: Ammonia production by S. sanguis at pH 4.0
Format: cell-based
Conditions: mean of 6 trials; 5 millimolar amino acid, pH 4.0, 0.1% sucrose, 37° C., 30 minutes
Description: An overnight culture of S. sanguis was grown at 37° C. in trypticase soy broth (Becton Dickinson, Sparks, Md.). The culture was centrifuged at 5,000 rpm for 5 minutes at 1 milliliter at a time into preweighed tubes in order to accumulate approximately 5 milligrams of wet pellet weight. The pellet was then resuspended into 20 millimolar potassium phosphate buffer (JT Baker, Phillipsburg, N.J.), pH 4.0, to simulate a stressed environment for the bacterial cell where ammonia would be produced for survival. The final concentration was 5 milligram per milliliter. To this final concentration, a 5 millimolar final concentration of L-arginine, L-citrulline, or L-ornithine was added along with a 0.1% final concentration of sucrose (VWR, West Chester, Pa.). This mixture was then incubated at 37° C. in a shaking water bath for 30 minutes before ammonia production was determined.
In order to analyze for ammonia, an Ammonia Assay kit was used from Diagnostic Chemicals Limited (Oxford, Conn.). The intended use of this specific kit is for the in vitro quantification of ammonia in plasma, but the procedure was modified in order to determine and quantify the ammonia production in plaque and/or bacteria.

`N=C(N)NCCC[C@H](N)C(=O)O` [L-Arginine, L-arginine] was tested, and the “Ammonia, Mean” value was 1.06 ppm.

`NC(=O)NCCC[C@H](N)C(=O)O` [L-Citrulline, L-citrulline] was tested, and the “Ammonia, Mean” value was 0.951 ppm.
